Data as given in patent US20190224195A1, “Oral Capsule Composite Formulation of Dutasteride and Tadalafil” (Yuyu Pharma, Inc., priority 2016, published 2019).
Values after ≈ are worked out from the molar mass of the structure shown.

Assays:
[1] = Solubility test according to surfactant; type: physicochemical; conditions: for solubility according to surfactants (in words): in PEG 6 glyceryl caprylate/caprate and PEG 8 caprylic/capric glyceride; for solubility at 24 h: organic solvent or mixture, thermodynamic from solid
[2] = Solubility test in various oils; type: physicochemical; conditions: for solubility at 24 h: oil or lipid, thermodynamic from solid; for solubility at 24 h / Solubility of Tadalafil: room temperature, 24 hours of stirring
Procedure: Dutasteride and tadalafil were measured for solubility in various oils comprising soybean oil, castor oil, polyoxyl 6 apricot kernel oil, propyleneglycol monolaurate, propyleneglycol monocaprylate, glyceryl caprylate/caprate. In a 10-mL vial, 3 mL of an oil was stirred at room temperature with a magnetic bar during which about 100 mg of the main ingredient was added, followed by stirring at 500 rpm or higher. After 24 hours of stirring, centrifugation was carried out and the supernatant thus formed was taken and subjected to liquid chromatography to quantitate the main ingredient dissolved in the oil phase.

With `C[C@]12C=CC(=O)N[C@@H]1CC[C@@H]1[C@@H]2CC[C@]2(C)[C@@H](C(=O)Nc3cc(C(F)(F)F)ccc3C(F)(F)F)CC[C@@H]12` [Dutasteride, 17β-N-(2,5-bis(trifluoromethyl))phenylcarbomoyl-4-aza-5α-androst-1-en-3-one] the “solubility according to surfactants (in words)” value [1] was “high solubility”, the solubility at 24 h ([1]; in PEG 6 glyceryl carpylate/caprate, read-out: Dutasteride Solubility) was 3550 µg/mL (≈ 6.72 mM) and the solubility at 24 h ([1]; in PEG 8 caprylic/capric glyceride, read-out: Dutasteride Solubility) was 3860 µg/mL (≈ 7.3 mM). It also gave a solubility at 24 h ([1]; in PEG 35 castor oil, read-out: Dutasteride Solubility) of 1990 µg/mL (≈ 3.77 mM), a solubility at 24 h ([1]; in Poloxamer 124, read-out: Dutasteride Solubility) of 1120 µg/mL (≈ 2.12 mM) and a solubility at 24 h ([1]; in Polysorbate 60, read-out: Dutasteride Solubility) of 1770 µg/mL (≈ 3.35 mM). For the same molecule, the solubility at 24 h ([1]; in Polysorbate 80, read-out: Dutasteride Solubility) was 1360 µg/mL (≈ 2.57 mM), the solubility at 24 h ([2]; in Castor oil, read-out: Solubility of Dutasteride) was 1500 µg/mL (≈ 2.84 mM) and the solubility at 24 h ([2]; in Glyceryl caprylate/caprate, read-out: Solubility of Dutasteride) was 14300 µg/mL (≈ 27.1 mM). It also gave a solubility at 24 h ([2]; in Polyoxyl 6 apricot kernel oil, read-out: Solubility of Dutasteride) of 2550 µg/mL (≈ 4.82 mM) and a solubility at 24 h ([2]; in Propylene glycol monocaprylate, read-out: Solubility of Dutasteride) of 26300 µg/mL (≈ 49.7 mM).
In the case of `CN1CC(=O)N2[C@H](c3ccc4c(c3)OCO4)c3[nH]c4ccccc4c3C[C@@H]2C1=O` [Tadalafil, 6R-trans-6-(1,3-benzodioxol-5-yl)-2,3,6,7,12,12a-hexahydro-2-methyl-pyrazino [1′,2′:1,6]pyrido[3,4-b]indole-1,4-dione], the “solubility according to surfactants (in words)” value [1] is reported as “high solubility”, the solubility at 24 h ([1]; in PEG 6 glyceryl carpylate/caprate, read-out: Tadalafil Solubility) is reported as 9130 µg/mL (≈ 23.4 mM) and the solubility at 24 h ([1]; in PEG 8 caprylic/capric glyceride, read-out: Tadalafil Solubility) is reported as 8810 µg/mL (≈ 22.6 mM). For the same molecule, the solubility at 24 h ([1]; in PEG 35 castor oil, read-out: Tadalafil Solubility) was 8100 µg/mL (≈ 20.8 mM), the solubility at 24 h ([1]; in Poloxamer 124, read-out: Tadalafil Solubility) was 6230 µg/mL (≈ 16 mM) and the solubility at 24 h ([1]; in Polysorbate 60, read-out: Tadalafil Solubility) was 10700 µg/mL (≈ 27.6 mM). The solubility at 24 h ([1]; in Polysorbate 80, read-out: Tadalafil Solubility) was 9650 µg/mL (≈ 24.8 mM), the “Solubility of Tadalafil” value ([2]; in Glyceryl caprylate/caprate) was 4130 µg/mL and the “Solubility of Tadalafil” value ([2]; in Polyoxyl 6 apricot kernel oil) was 1120 µg/mL. For the same molecule, the “fold greater solubility than the other oils” value ([2]; in glyceryl caprylate/caprate and propylene glycol monocaprylate versus castor oil, soybean oil, polyoxyl 6 apricot kernel oil) was no less than 4 fold and the solubility at 24 h ([2]; in Propylene glycol monocaprylate, read-out: Solubility of Tadalafil) was 4610 µg/mL (≈ 11.8 mM).
